Reference: US20050009903A1, “CB2-selective cannabinoid analogues” (priority 2003, published 2005)
“And” between values parts separate entries of the source, which are not always exact repeats. Equal values may be shown once. Read-outs that look alike come from different tables or passages of the source.

Key:
CB1 receptor [1] = target: T1, CB1 receptor (Rattus norvegicus, UniProt P20272); experiment: CB1 assay: displacement of [3H]CP-55,940 from rat brain membrane preparation; assay type: binding
T1 construct: from tissue; host or cells: rat whole brain, P2 membranes

CB2 receptor [2] = target: T2, CB2 receptor (Homo sapiens, UniProt P34972); experiment: CB2 assay: displacement of [3H]CP-55,940 from cloned human CB2 receptor preparation (transfected HEK 293 cells); assay type: binding; design: expressed in transfected cells; conditions: for selectivity for the CB2 receptor: CB2 over CB1 affinity; for Ratio CB17CB2: Table 2; for Ratio CB17CB2 / Ratio CB1/CB2: ratio of Ki values; for Ratio CB1/CB2: Table 1
CB2 receptor [3] = target: T2, CB2 receptor; experiment: [35S]GTPγS binding in human CB2 receptor-expressing CHO cell membranes; assay type: biochemical; design: expressed in transfected cells; conditions: for efficacy in the [35S]GTPγS assay relative to CP-55,940: in words; for Emax (% CP-55940): per cent relative to 3 μM CP-55,940
CB1 receptor [4] = target: T1, CB1 receptor; conditions: cited from earlier work
CB1 receptor [5] = target: T3, CB1 receptor (Homo sapiens, UniProt P21554); conditions: Gareau et al.; cited from earlier work
CB2 receptor [6] = target: T2, CB2 receptor
CB2 receptor [7] = target: T2, CB2 receptor; design: expressed in transfected cells; conditions: cited from earlier work
CB1 receptor [8] = target: T3, CB1 receptor; conditions: read-out: Ki CB1 receptor; Hanus et al.; cited from earlier work
mouse behavioral tetrad = conditions: cited from earlier work
[9] = blocked by CB2 antagonist SR-144528; cited from earlier work
[10] = blocked by CB2 antagonist SR-144528; cited from earlier work; remark: listed apart in the source
mouse vas deferens = conditions: cited from earlier work
[11] = system: mouse model of multiple sclerosis; conditions: cited from earlier work
glioma tumors = conditions: cited from earlier work
[12] = rat brain membranes, read-out: Ki at CB1 receptor
[13] = cloned human CB2, read-out: Ki at CB2 receptor
[14] = read-out: Emax relative to CP-55,940
[15] = Ki at CB2 receptor, cloned human CB2
[16] = Table 3, mean ± SEM, 3-(alkoxy-1-naphthoyl)indoles, the same values as Ki in nM, read-out: CB2 (receptor affinity)
[17] = Table 1, mean ± SEM, values marked ref 8, 19 or 20, read-out: Ki CB1
[18] = previously reported by the applicants (literature refs), read-out: Ki at CB1 receptor
[19] = previously reported by the applicants (literature refs), read-out: Ki at CB2 receptor
[20] = read-out: CB1 (receptor affinity), Table 3, mean ± SEM, 3-(alkoxy-1-naphthoyl)indoles, the same values as Ki in nM

T1 sequence (P20272 whole entry): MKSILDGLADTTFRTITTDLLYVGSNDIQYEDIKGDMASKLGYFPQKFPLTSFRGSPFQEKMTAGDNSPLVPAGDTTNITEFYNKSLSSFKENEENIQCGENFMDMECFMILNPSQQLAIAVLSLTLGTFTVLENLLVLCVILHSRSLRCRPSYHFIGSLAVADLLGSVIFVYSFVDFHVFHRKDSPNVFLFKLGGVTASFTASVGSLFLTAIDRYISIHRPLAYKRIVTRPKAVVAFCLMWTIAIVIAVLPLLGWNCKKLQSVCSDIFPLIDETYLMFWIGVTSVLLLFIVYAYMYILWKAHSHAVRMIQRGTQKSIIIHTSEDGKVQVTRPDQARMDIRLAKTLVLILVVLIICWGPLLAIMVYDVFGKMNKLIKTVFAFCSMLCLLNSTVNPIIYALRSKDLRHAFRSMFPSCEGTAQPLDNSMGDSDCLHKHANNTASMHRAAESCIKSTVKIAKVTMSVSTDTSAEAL
T2 sequence (P34972 whole entry): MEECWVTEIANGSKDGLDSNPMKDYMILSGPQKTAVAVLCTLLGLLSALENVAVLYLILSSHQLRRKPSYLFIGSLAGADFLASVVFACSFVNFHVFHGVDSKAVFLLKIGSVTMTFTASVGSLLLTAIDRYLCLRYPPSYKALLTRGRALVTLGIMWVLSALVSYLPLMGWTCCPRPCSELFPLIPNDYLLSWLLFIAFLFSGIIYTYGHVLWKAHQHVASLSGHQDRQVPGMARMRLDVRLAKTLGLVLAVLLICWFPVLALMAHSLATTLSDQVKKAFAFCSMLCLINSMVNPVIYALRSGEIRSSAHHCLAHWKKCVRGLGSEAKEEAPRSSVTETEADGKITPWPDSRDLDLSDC
T3 sequence (P21554 whole entry): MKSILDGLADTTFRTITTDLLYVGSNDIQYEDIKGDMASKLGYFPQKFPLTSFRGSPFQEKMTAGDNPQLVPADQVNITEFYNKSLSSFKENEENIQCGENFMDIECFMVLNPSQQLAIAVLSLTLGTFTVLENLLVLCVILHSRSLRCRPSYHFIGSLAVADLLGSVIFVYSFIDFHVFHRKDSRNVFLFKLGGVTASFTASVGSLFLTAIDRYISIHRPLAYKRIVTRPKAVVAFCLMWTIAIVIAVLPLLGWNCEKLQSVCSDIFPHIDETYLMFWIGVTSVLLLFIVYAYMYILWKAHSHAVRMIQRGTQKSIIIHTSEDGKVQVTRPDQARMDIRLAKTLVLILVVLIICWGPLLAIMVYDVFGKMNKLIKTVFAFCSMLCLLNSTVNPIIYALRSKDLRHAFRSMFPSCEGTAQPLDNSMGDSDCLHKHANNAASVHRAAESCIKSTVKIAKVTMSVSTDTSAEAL

CCCn1cc(C(=O)c2ccc(C)c3ccccc23)c2ccccc21 [JWH-120, 1-Propyl-3-(4-methyl-1-naphthoyl)indole]
Ki (CB1 receptor [1]; [12]): 1050 ± 31 nM
selectivity for the CB2 receptor (CB2 receptor [2]): 173 fold
Ratio CB17CB2 (CB2 receptor [2]): 173
Ki (CB2 receptor [2]; [13]): 6.1 ± 7 nM
EC50 (CB2 receptor [3]): 5.1 ± 1.6 nM
efficacy in the [35S]GTPγS assay relative to CP-55,940 (CB2 receptor [3]): partial agonists
Emax (CB2 receptor [3]; read-out: Emax (% CP-55940)): 78.1 ± 10.7%
Emax (CB2 receptor [3]; [14]): 78.1 ± 10.7%

CCCCCCC(C)(C)c1cc(OC)c2c(c1)OC(C)(C)[C@@H]1CC=C(C)C[C@@H]21 [Compound 4, 3-(1′,1′-Dimethylheptyl)-1-methoxy-Δ^8-THC, reference compound]
Ki (CB1 receptor [1]): 713 nM
Ki (CB1 receptor [4]; read-out: Ki at CB1 receptor, previously reported by the applicants (literature refs)): 924 ± 104 nM
Ki at CB1 (CB1 receptor [5]): virtually no affinity
Ki (CB2 receptor [6]; read-out: Ki at CB2; Gareau et al.; cited from earlier work): ~20 nM
Ki (CB2 receptor [2]; [15]): 57 nM
Ratio CB1/CB2 (CB2 receptor [2]): 12 and 14
Ki (CB2 receptor [7]; read-out: Ki at CB2 receptor, previously reported by the applicants (literature refs)): 65 ± 8 nM

CCCCCn1cc(C(=O)c2c(OC)ccc3ccccc23)c2ccccc21 [JWH-267, 1-Pentyl-3-(2-methoxy-1-naphthoyl)indole]
Ki (CB1 receptor [1]; [12]): 381 ± 16 nM
selectivity for the CB2 receptor (CB2 receptor [2]): 53 fold
Ki (CB2 receptor [2]; [15]): 7.35 nM
Ki (CB2 receptor [2]; [16]): 7.2 ± 0.14 nM
EC50 (CB2 receptor [3]): 4.9 ± 0.8 nM
efficacy in the [35S]GTPγS assay relative to CP-55,940 (CB2 receptor [3]): partial agonists
Emax (CB2 receptor [3]; read-out: Emax (% CP-55940)): 67.3 ± 2.9%

CCCCCn1c(C)c(C(=O)c2cccc3ccccc23)c2ccccc21 [JWH-007, 1-pentyl-2-methyl-3-(1-naphthoyl)indole]
Ratio CB17CB2 (CB2 receptor [2]): 3.3
Ki (CB2 receptor [7]; read-out: Ki CB2, Table 2, mean ± SEM, values marked with literature refs): 2 ± 2.6 nM

CCCn1c(C)c(C(=O)c2cccc3ccccc23)c2ccccc21 [JWH-015, 2-Methyl-1-propyl-3-(1-naphthoyl)indole]
Emax (CB2 receptor [3]; read-out: Emax (% CP-55940)): 65.7 ± 6.4%
Emax (CB2 receptor [3]; [14]): 65.7 ± 6.4%

CCCCCCC(C)(C)c1cc(OC)c([C@@H]2C=C(CO)[C@@H]3C[C@H]2C3(C)C)c(OC)c1 [HU-308]
Ki (CB1 receptor [8]): > 10000 nM
activity in the mouse behavioral tetrad (mouse behavioral tetrad): inactive
effect on blood pressure [9]: reduces blood pressure
peripheral analgesic activity [10]: shows peripheral analgesic activity

C=C1CCC2C(C1)c1c(OC)cc(C(C)(C)CCCCCC)cc1OC2(C)C (stereo not shown) [Compound 5, 1-methoxy-66 ^9(11)-THC-DMH]
Ki at CB1 (CB1 receptor [5]): virtually no affinity
Ki (CB2 receptor [6]; Gareau et al.; read-out: Ki at CB2; cited from earlier work): ~20 nM

CCCCCCC(C)(C)c1ccc2c(c1)OC(C)(C)C1CC=C(CO)CC21 (stereo not shown) [Compound 1, 1-Deoxy-11-hydroxy-3-(1′,1′-dimethylheptyl)-Δ^8-THC]
Ki (CB1 receptor [4]; [17]): 1.2 ± 0.1 nM
Ki (CB1 receptor [4]; [18]): 1.2 nM
Ratio CB1/CB2 (CB2 receptor [2]): 40
Ki (CB2 receptor [7]; Table 1, mean ± SEM, values marked ref 30, 19 or 20, read-out: Ki CB2): 0.03 ± 0.02 nM
Ki (CB2 receptor [7]; [19]): 0.032 nM

COc1ccc(C(=O)c2c(C)n(CCN3CCOCC3)c3ccccc23)cc1 [pravadoline]
contractions of electrically stimulated mouse vas deferens (mouse vas deferens): inhibited contractions

CCCC(C)(C)c1ccc2c(c1)OC(C)(C)C1CC=C(C)CC21 (stereo not shown) [Compound 3, 3-(1′,1′-Dimethylbutyl)-1-deoxy-Δ^8-THC, reference compound]
Ki (CB1 receptor [4]; [18]): 677 ± 132 nM
reduction of spasticity [11]: effective in reducing spasticity
in vivo growth of glioma tumors (glioma tumors): inhibits the in vivo growth of glioma tumors
Ratio CB1/CB2 (CB2 receptor [2]): 199
Emax relative to CP-55,940 (CB2 receptor [3]): 111.5±13.6%
Emax (% CP-55940) (CB2 receptor [3]; Table 4, mean ± SEM): 111.5 ± 13.6 % CP-55940
efficacy in the [35S]GTPγS assay relative to CP-55,940 (CB2 receptor [3]): highly efficacious
EC50 (CB2 receptor [3]; read-out: EC50 in the [35S]GTPγS assay): 4 ± 1 nM
Ki (CB2 receptor [7]; previously reported by the applicants (literature refs), listed as JWH-133, read-out: Ki at CB2 receptor): 3.4 ± 1 nM

CCCCCn1c(C)c(C(=O)c2cccc3ccc(OC)cc23)c2ccccc21 [JWH-159, 2-Methyl-1-pentyl-3-(7-methoxy-1-naphthoyl)indole]
Ki (CB1 receptor [1]; [12]): 45 ± 1 nM
Ki (CB2 receptor [2]; [13]): 10.4 ± 1.4 nM

CCCn1c(C)c(C(=O)c2cccc3cc(OC)ccc23)c2ccccc21 [JWH-151, 2-Methyl-1-propyl-3-(6-methoxy-1-naphthoyl)indole]
Ki (CB1 receptor [1]): > 10000 nM
Ki (CB1 receptor [1]; [20]): > 10000 nM
selectivity for the CB2 receptor (CB2 receptor [2]): > 333 fold
Ki (CB2 receptor [2]; [13]): 30 ± 1 nM
EC50 (CB2 receptor [3]): 12 ± 2.9 nM
efficacy in the [35S]GTPγS assay relative to CP-55,940 (CB2 receptor [3]): highly efficacious
Emax (CB2 receptor [3]; read-out: Emax (% CP-55940)): 108 ± 13%
Emax (CB2 receptor [3]; [14]): 108 ± 13%

CCCn1cc(C(=O)c2cccc3ccc(C)cc23)c2ccccc21 [JWH-076, 1-Propyl-3-(7-methyl-1-naphthoyl)indole]
Ki (CB1 receptor [1]; [12]): 214 ± 11 nM
Ratio CB17CB2 (CB2 receptor [2]): 2.0
Ki (CB2 receptor [2]; [13]): 106 ± 46 nM

CCCCCn1cc(C(=O)c2cccc3ccc(CC)cc23)c2ccccc21 [JWH-234, 1-Pentyl-3-(7-ethyl-1-naphthoyl)indole]
Ki (CB1 receptor [1]; [12]): 8.4 ± 1.8 nM
Ratio CB17CB2 (CB2 receptor [2]): 2.2
Ki (CB2 receptor [2]; [13]): 3.8 ± 0.6 nM

CCCn1c(C)c(C(=O)c2cccc3ccc(OC)cc23)c2ccccc21 [JWH-160, 2-Methyl-1-propyl-3-(7-methoxy-1-naphthoyl)indole]
Ki (CB1 receptor [1]; [12]): 1570 ± 201 nM
Ki (CB2 receptor [2]; [16]): 441 ± 110 nM

CCCCCn1cc(C(=O)c2ccc(CCCC)c3ccccc23)c2ccccc21 [JWH-240, 1-Pentyl-3-(4-butyl-1-naphthoyl)indole]
Ki (CB1 receptor [1]; [12]): 14 ± 1 nM
Ratio CB17CB2 (CB2 receptor [2]): 1.9
Ki (CB2 receptor [2]; [13]): 7.2 ± 13 nM

CCCCCCC(C)(C)c1ccc2c(c1)OC(C)(C)C1CC=C(C)CC21 (stereo not shown) [Compound 2, 1-Deoxy-3-(1′,1′-dimethylheptyl)-Δ^8-THC]
Ki (CB1 receptor [4]; [17]): 22.8 ± 7.3 nM
Ki (CB1 receptor [4]; [18]): 23 nM
Ratio CB1/CB2 (CB2 receptor [2]): 7.9
Ki (CB2 receptor [7]; [19]): 2.9 nM

CCCn1c(C)c(C(=O)c2c(OC)ccc3ccccc23)c2ccccc21 [JWH-266, 2-Methyl-1-propyl-3-(2-methoxy-1-naphthoyl)indole]
Ki (CB1 receptor [1]): > 10000 nM
Ki (CB1 receptor [1]; [20]): > 10000 nM
Ki (CB2 receptor [2]; [15]): 455 ± 55 nM

CCCCCn1cc(C(=O)c2cccc3ccc(OC)cc23)c2ccccc21 [JWH-164, 1-Pentyl-3-(7-methoxy-1-naphthoyl)indole]
Ki (CB1 receptor [1]; [12]): 6.6 ± 0.7 nM
Ki (CB2 receptor [2]; [13]): 6.9 ± 0.2 nM

1-Methoxy-3-(1′,1′-dimethylhexyl)-Δ^8-THC [Compound 6e]
EC50 (CB2 receptor [3]; Table 4, mean ± SEM, human CB2 CHO cells, read-out: EC50 GTPγS binding): 4.6 ± 2 nM
Emax (% CP-55940) (CB2 receptor [3]; Table 4, mean ± SEM): 75.7 ± 8.3 % CP-55940

CCCCc1ccc(C(=O)c2cn(CCC)c3ccccc23)c2ccccc12 [JWH-239, 1-Propyl-3-(4-butyl-1-naphthoyl)indole]
Ki (CB1 receptor [1]; [12]): 342 ± 20 nM
Ratio CB17CB2 (CB2 receptor [2]): 6.6
Ki (CB2 receptor [2]; [13]): 52 ± 6 nM

CCCn1c(C)c(C(=O)c2cccc3ccc(CC)cc23)c2ccccc21 [JWH-236, 2-Methyl-1-propyl-3-(7-ethyl-1-naphthoyl) indole]
Ki (CB1 receptor [1]; [12]): 1350 ± 204 nM
Ratio CB17CB2 (CB2 receptor [2]): 5.6
Ki (CB2 receptor [2]; [13]): 240 ± 63 nM

CCCn1cc(C(=O)c2c(OC)ccc3ccccc23)c2ccccc21 [JWH-265, 1-Propyl-3-(2-methoxy-1-naphthoyl)indole]
Ki (CB1 receptor [1]; Table 3, mean ± SEM, 3-(alkoxy-1-naphthoyl)indoles, the same values as Ki in nM, read-out: CB1 (receptor affinity)): 3790 ± 323 nM
melting point: 117 to 119 °C
Ki (CB2 receptor [2]; [13]): 80 ± 13 nM
